In test [1] the target is T1, Myotonin-protein kinase (Homo sapiens) (UniProt Q09013).
T1 sequence (whole entry): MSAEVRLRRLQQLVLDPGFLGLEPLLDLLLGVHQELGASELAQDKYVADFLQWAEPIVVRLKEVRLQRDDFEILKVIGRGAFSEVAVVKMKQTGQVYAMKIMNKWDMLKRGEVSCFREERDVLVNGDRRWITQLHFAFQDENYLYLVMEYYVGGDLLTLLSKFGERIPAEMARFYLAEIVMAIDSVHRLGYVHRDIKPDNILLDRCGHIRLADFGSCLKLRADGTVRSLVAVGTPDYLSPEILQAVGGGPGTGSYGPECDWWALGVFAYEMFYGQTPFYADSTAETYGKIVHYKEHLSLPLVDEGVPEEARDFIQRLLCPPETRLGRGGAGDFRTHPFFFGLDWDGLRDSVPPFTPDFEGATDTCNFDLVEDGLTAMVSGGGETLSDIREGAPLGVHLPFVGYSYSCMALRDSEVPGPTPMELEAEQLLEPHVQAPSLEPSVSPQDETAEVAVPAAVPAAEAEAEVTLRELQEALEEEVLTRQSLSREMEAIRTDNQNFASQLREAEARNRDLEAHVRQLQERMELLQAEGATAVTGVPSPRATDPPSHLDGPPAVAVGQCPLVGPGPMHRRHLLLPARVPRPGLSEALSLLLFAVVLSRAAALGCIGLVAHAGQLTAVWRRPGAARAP
Kind of test: Selectivity interaction (KinomeScan (DiscoverX)) EUB0001619a DMPK. Conditions: at 1 µM.

Test [2] concerns the target Serine/threonine-protein kinase SBK1 (Homo sapiens) (UniProt Q52WX2). Nature of the test: Selectivity interaction (KinomeScan (DiscoverX)) EUB0000666a SBK1. Conditions: at 10 µM.
The target in test [3] is T2, Cyclin-dependent kinase 11A (Homo sapiens) (UniProt Q9UQ88).
T2 sequence (whole entry): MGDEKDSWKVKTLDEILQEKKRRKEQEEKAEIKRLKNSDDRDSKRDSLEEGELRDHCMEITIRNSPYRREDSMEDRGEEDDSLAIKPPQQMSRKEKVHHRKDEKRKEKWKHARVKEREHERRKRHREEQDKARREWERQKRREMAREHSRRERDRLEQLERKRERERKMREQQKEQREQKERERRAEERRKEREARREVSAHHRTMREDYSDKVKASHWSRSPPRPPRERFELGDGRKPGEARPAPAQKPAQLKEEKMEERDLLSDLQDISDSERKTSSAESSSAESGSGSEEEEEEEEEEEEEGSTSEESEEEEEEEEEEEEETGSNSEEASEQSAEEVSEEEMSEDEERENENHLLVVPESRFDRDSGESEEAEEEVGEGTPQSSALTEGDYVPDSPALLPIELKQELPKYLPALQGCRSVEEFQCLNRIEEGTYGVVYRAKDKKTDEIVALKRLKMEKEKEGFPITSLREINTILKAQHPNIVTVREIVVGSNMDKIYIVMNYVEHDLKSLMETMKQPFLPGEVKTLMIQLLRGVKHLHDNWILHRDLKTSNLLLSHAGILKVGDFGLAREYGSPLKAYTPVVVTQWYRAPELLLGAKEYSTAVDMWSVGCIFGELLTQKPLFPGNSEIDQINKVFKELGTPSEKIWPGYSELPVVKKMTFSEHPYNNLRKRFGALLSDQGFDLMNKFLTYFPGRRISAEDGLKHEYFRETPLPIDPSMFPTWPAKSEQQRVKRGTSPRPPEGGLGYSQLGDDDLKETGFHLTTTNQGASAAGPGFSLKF
Nature of the test: Selectivity interaction (ActivX KiNativ screen (kinase selectivity in THP-1 cell lysates)) EUB0000639a CDK11A. In kind it is subcellular. Conditions: lysate, at 5 µM.

Test [4] addresses Phosphorylase b kinase gamma catalytic chain, skeletal muscle/heart isoform (Homo sapiens) (UniProt Q16816). Kind of test: Selectivity interaction (Kinase panel (Invitrogen)) EUB0000639a PHKG1. Conditions: at 200 nM.
Test [5] concerns the target Mitogen-activated protein kinase 9 (Homo sapiens, UniProt P45984). Nature of the test: Selectivity interaction (Kinase panel (literature)) EUB0001199aCl MAPK9. The settings on record: at 1 µM.
The target in test [6] is Calcium/calmodulin-dependent protein kinase type II subunit delta (Homo sapiens) (UniProt Q13557). Nature of the test: Selectivity interaction (ProQinase) EUB0000171b CAMK2D.
Chain of Calcium/calmodulin-dependent protein kinase type II subunit delta (Homo sapiens) (Q13557 whole entry): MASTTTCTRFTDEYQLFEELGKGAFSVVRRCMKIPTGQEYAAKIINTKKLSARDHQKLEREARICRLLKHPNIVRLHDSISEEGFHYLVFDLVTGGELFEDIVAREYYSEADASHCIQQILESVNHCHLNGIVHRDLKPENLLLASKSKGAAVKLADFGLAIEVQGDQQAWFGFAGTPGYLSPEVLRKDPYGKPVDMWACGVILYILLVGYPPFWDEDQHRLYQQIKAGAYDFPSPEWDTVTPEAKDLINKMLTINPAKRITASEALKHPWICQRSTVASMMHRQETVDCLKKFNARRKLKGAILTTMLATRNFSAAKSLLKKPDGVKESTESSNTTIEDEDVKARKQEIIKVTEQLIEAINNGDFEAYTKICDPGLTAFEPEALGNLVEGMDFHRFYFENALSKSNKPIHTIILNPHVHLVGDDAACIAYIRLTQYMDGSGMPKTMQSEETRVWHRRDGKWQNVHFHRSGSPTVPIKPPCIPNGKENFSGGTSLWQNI
The target of test [7] is Mitogen-activated protein kinase kinase kinase kinase 5 (Homo sapiens) (UniProt Q9Y4K4). Kind of test: Selectivity interaction (Ambit KINOMEscan and KiNATiv profiling in Jurkat cells) EUB0000090b MAP4K5. In kind it is cell-based. Conditions: at 1 µM.
Chain of Mitogen-activated protein kinase kinase kinase kinase 5 (Homo sapiens) (Q9Y4K4 whole entry, looked up): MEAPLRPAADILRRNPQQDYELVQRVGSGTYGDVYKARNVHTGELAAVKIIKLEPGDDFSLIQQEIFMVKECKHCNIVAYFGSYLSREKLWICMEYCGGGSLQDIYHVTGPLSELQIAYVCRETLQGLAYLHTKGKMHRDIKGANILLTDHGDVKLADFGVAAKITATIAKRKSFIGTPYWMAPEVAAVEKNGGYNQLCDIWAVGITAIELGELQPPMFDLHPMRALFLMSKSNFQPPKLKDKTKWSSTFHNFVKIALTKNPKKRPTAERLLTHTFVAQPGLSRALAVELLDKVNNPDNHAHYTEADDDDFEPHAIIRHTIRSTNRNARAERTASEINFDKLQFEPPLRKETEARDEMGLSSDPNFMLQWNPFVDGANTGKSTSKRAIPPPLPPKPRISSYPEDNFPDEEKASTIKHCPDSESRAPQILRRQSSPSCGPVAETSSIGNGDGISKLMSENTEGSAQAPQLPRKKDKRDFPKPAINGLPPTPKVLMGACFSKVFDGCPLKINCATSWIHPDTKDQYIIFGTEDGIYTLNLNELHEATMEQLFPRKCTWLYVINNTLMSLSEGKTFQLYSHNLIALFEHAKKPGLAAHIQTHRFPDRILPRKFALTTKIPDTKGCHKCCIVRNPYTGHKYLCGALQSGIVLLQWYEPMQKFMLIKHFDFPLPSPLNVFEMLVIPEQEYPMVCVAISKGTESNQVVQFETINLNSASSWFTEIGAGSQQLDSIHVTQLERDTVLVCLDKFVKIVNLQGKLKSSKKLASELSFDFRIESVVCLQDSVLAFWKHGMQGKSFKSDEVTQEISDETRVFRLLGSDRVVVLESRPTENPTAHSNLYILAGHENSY
Test [8] has as its target MAP/microtubule affinity-regulating kinase 3 (Homo sapiens) (UniProt P27448). Kind of test: Selectivity interaction (Ambit KINOMEscan and KiNATiv profiling in Jurkat cells) EUB0000090b MARK3. It is filed as cell-based. Conditions: at 1 µM.
In test [9] the target is T3, Serine/threonine-protein kinase BRSK1 (Homo sapiens) (UniProt Q8TDC3).
T3 sequence (whole entry): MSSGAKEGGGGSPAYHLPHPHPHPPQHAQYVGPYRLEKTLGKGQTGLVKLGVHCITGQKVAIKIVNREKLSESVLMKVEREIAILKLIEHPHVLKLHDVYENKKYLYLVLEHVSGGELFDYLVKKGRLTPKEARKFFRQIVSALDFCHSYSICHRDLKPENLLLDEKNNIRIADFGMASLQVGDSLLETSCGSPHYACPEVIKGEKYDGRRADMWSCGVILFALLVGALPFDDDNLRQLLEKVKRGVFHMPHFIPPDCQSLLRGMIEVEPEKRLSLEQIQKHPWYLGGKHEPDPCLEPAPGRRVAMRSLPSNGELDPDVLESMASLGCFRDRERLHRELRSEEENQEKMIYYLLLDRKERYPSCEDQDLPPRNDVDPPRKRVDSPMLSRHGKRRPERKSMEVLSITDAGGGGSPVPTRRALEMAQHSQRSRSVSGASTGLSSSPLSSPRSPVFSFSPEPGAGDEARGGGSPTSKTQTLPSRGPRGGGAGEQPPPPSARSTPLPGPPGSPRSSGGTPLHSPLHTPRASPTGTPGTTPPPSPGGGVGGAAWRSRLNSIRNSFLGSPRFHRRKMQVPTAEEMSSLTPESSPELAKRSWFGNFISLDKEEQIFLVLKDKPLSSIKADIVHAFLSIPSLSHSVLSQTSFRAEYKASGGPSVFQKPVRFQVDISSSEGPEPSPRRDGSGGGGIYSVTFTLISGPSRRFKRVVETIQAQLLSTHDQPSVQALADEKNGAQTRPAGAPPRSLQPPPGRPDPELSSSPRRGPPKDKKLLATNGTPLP
Nature of the test: Selectivity interaction (Upstate Kinase Profiler service (Millipore)) EUB0000056c BRSK1. The settings on record: at 1 µM.

Test [10] has as its target Non-receptor tyrosine-protein kinase TYK2 (Homo sapiens, UniProt P29597). Nature of the test: Selectivity interaction (KinomeScan (DiscoverX)) EUB0000618a TYK2. Conditions: at 10 µM.
Test [11] concerns the target Bone morphogenetic protein receptor type-1B (Homo sapiens, UniProt O00238). Nature of the test: Selectivity interaction (KinomeScan (DiscoverX)) EUB0000618a BMPR1B. Conditions: at 10 µM.
The target in test [12] is Cyclin-dependent kinase 17 (Homo sapiens) (UniProt Q00537). Kind of test: Selectivity interaction (KinomeScan (DiscoverX)) EUB0000229b CDK17. Conditions: at 10 µM.
Chain of Cyclin-dependent kinase 17 (Homo sapiens) (Q00537 whole entry, looked up): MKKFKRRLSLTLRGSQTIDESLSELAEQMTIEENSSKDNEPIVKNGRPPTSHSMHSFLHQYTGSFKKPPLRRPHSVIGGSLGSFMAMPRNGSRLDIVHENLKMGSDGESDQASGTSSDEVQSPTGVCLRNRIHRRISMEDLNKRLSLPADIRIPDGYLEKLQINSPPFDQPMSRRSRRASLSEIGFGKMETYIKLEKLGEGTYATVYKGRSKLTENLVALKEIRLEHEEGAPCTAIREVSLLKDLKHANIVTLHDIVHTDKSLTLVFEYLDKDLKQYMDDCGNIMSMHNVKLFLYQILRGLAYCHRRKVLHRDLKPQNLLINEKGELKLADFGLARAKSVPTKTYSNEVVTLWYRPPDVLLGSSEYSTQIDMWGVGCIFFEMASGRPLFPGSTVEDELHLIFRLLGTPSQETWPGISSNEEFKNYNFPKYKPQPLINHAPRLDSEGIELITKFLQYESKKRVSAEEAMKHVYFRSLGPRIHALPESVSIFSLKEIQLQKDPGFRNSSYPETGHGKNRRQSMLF

Chain of Serine/threonine-protein kinase SBK1 (Homo sapiens) (Q52WX2 whole entry): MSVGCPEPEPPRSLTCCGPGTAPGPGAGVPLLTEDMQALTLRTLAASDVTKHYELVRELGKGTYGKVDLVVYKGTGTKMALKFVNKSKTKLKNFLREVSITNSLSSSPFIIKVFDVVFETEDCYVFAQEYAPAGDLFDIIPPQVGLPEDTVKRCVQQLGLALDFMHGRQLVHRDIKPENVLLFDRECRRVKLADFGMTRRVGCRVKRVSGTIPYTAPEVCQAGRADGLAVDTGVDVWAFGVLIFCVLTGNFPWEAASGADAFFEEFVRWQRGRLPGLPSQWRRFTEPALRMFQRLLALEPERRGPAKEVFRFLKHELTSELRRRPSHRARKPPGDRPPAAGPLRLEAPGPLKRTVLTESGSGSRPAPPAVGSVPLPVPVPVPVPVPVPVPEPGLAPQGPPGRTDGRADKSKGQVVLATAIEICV
Chain of Bone morphogenetic protein receptor type-1B (O00238 whole entry): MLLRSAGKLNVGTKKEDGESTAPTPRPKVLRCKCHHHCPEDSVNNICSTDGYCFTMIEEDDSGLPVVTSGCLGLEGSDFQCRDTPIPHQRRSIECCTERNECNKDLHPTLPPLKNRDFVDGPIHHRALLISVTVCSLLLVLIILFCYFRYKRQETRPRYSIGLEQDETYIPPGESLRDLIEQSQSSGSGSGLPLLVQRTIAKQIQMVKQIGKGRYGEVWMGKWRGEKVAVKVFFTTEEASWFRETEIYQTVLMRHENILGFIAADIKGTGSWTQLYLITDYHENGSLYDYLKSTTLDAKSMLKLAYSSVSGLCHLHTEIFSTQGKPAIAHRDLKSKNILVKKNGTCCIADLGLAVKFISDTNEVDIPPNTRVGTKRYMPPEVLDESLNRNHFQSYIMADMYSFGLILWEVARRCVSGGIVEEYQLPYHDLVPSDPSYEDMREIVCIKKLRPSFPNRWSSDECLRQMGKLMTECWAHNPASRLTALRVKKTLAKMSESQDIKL
Chain of MAP/microtubule affinity-regulating kinase 3 (Homo sapiens) (P27448 whole entry, looked up): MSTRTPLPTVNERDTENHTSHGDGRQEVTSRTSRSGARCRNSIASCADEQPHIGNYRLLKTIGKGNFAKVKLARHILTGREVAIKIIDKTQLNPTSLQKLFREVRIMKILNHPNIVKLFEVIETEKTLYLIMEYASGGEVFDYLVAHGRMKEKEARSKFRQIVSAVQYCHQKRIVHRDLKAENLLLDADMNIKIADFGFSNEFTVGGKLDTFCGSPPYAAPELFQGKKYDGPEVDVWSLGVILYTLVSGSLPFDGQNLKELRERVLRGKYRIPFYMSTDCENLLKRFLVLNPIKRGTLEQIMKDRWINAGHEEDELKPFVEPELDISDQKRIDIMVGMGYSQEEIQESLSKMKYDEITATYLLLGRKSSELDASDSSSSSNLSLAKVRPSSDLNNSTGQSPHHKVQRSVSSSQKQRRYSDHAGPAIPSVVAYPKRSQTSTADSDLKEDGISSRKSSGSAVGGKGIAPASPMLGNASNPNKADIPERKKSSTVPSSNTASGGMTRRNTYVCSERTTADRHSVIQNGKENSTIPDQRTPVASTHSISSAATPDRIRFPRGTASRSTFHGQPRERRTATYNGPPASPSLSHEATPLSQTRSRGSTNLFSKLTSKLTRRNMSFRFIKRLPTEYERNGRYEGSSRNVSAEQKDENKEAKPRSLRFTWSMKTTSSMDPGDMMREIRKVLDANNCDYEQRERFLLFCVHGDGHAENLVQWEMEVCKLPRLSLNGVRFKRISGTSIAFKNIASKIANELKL
Chain of Phosphorylase b kinase gamma catalytic chain, skeletal muscle/heart isoform (Homo sapiens) (Q16816 whole entry, looked up, canonical isoform): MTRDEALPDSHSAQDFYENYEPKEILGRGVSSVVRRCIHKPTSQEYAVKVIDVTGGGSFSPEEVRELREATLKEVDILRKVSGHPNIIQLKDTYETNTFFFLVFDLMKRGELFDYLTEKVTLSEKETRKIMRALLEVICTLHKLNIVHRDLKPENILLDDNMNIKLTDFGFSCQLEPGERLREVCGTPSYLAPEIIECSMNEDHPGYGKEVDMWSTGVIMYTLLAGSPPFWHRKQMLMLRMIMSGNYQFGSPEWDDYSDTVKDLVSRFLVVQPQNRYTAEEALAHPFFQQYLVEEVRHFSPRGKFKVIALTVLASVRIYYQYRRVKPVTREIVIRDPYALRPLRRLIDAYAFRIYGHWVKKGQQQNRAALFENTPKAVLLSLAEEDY
Chain of Mitogen-activated protein kinase 9 (P45984 whole entry, looked up): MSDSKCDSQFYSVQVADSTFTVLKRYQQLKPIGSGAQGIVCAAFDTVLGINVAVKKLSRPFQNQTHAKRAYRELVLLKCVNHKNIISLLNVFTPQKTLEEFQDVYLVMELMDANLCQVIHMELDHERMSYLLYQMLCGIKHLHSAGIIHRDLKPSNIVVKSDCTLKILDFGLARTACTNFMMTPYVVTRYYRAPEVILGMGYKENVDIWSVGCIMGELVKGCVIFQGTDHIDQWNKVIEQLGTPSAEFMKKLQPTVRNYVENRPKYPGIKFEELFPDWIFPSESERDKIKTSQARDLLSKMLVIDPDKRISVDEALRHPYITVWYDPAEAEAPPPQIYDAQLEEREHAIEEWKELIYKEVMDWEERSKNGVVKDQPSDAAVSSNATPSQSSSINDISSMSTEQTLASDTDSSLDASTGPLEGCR

For `N#Cc1cccc(-c2c[nH]c3ncnc(N4CCOCC4)c23)c1`, in test [1], the % of control was found to be 87%.

Regarding `O=C(NOC[C@H](O)CO)c1ccc(F)c(F)c1Nc1ccc(I)cc1F`, the % of control in test [2] turned out to be 100%.

For `CC[C@@H]1[C@H](F)C(=O)N[C@@H]1COc1nccc2cc(C(N)=O)c(OC)cc12` [ZIMLOVISERTIB], the % of inhibition in [3] was -20.8%; in [4], 16.7%.

`CN1Cc2nccc(-c3cn(C)nc3-c3ccc(F)cc3)c2C1=O`: in test [5], the % of inhibition turned out to be 18%.

Regarding `C=CC(=O)Nc1cccc(C(=O)Nc2ccc(Nc3cc(-c4[nH]c(SC)nc4C)ccn3)cc2)c1`, the % of control came out at 95% in [6] (at 1 µM) and 92% in [6] (at 5 µM).

Take `CN(C)C/C=C/C(=O)Nc1ccc(C(=O)N2CCCC(Nc3ncc(Cl)c(-c4c[nH]c5ccccc45)n3)C2)cc1` (stereo not drawn): the % of control in test [7] was 81%; in test [8], 88%.

For `Cc1ccc(-c2ccc3c(ccc4sc5c(c43)NC[C@@H](C)NC5=O)n2)cn1`, in [9], the % of inhibition was 80%.

`O[C@H]1CC[C@H](Nc2ncc3nc(Nc4c(F)cc(F)cc4F)n([C@H]4CCOC4)c3n2)CC1`: the % of control in test [10] stood at 61%; in test [11], 100%.

`COc1cc(N(C)c2ccnc3ccc(C(F)(F)F)cc23)cc(OC)c1OC` had a % binding in test [12] of 88%.
